According to patent US20260265305A1, “POLYPEPTIDE DERIVATIVE FOR ORAL DELIVERY” (Hangzhou Sciwind Biosciences Co., Ltd., priority 2023, published 2026):
Where two headings read alike, the source gives them in different places. Numbered stars: 1 amine (or outer) side, 2 acyl side, 3 side chain; on linkers, the order of the positions; unused ones are H or OH. Square brackets hold non-standard residues; d marks the D form. Peptide text beside a SMILES is read from it. * marks the point of attachment. C20 diacid = O=C(O)CCCCCCCCCCCCCCCCCCC(=O)*; γGlu = O=C(O)[C@H](CCC(=O)[*:2])N[*:1]; AEEA = NCCOCCOCC(=O)O

Experiments:
[1] = biological target: T1, calcitonin receptor (hCTR) (Homo sapiens, UniProt P30988); assay: Calcitonin receptor agonism, CRE-luciferase assay in stably transfected CHO-K1/CALCR/Ga15 cells; format: cell-based
T1 construct: host or cells: CHO-K1/CALCR/Ga15 cells, further stably transfected with a CRE-luciferase plasmid
T1 sequence (P30988 25-474): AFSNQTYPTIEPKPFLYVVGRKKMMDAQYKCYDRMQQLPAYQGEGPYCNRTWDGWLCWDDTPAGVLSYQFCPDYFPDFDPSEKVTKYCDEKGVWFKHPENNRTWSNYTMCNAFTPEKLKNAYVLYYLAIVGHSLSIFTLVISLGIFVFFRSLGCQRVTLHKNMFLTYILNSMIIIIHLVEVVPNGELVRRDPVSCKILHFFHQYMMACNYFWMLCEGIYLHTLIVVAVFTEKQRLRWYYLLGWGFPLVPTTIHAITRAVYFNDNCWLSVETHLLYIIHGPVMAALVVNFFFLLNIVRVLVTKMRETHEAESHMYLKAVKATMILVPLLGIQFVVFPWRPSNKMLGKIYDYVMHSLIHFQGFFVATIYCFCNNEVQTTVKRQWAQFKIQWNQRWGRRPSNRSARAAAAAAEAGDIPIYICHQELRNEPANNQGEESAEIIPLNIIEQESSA
Description: Using the standard protocol, CHO-K1/CALCR/Ga15 cells (purchased from GenScript, with the calcitonin receptor constructed already) were transfected with a plasmid containing a luciferase expression cassette driven by multiple copies of cAMP response elements (CREs). The cells were cultured in an F12 medium containing 200 ug/mL Zeocin, 2 ug/mL puromycin, and 100 ug/mL hygromycin to afford a stably transfected calcitonin receptor/CRE-luc cell line.
To each well of a white 96-well plate was added 50 μL of the tested sample solution at a respective concentration.
The stably transfected calcitonin receptor/CRE-luc CHO cells were resuspended in the growth medium at a certain density, and 50 μL of the cell suspension was added at a density of about 20,000 cells per well to the white 96-well plate containing the tested sample solution. After incubation of 24 hours at 37° C. and 5% CO2, 100 μL of a Luciferase substrate was added to each well, incubated for 3 minutes, and finally was tested for luminescence on SpectraMax L (Molecular Devices) with the software SoftMax Pro 7.0.3 GxP. A standard curve was plotted using the fluorescent intensities for calculation of EC50.

amylin receptor (hAMY3R) = biological target: T2, amylin receptor (hAMY3R) (Homo sapiens, UniProt O60896+P30988); assay: Amylin receptor agonism testing, CRE-luciferase assay in stably transfected CHO-K1/Ga15/AMY3 cells; format: cell-based
T2 construct: host or cells: CHO-K1/Ga15/AMY3 cells, further stably transfected with a CRE-luciferase plasmid
T2 sequence (P30988 25-474): T1 sequence (P30988 25-474)
T2 sequence (O60896 24-148): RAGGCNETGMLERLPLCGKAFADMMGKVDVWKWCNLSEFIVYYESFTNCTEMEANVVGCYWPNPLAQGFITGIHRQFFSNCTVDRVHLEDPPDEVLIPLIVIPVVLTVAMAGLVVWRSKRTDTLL

[2] = Heat accelerated stability assay of polypeptide solutions (40° C., pH about 7.4), reversed phase chromatography; format: physicochemical; conditions: 40° C.; for Concentration change on 26 d / Purity change on 26 d: Day 26; for Purity change on 7 d / Purity change on 26 d: reversed phase chromatography 214 nm; for Purity change on 7 d: purity on 7 d − purity on 0 d; for Purity change on 26 d: purity on 26 d − purity on 0 d
Summary of the method: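 Polypeptide derivative lyophilisate (1 mg/mL) with sodium dihydrogen phosphate (1.42 mg/mL) in water, pH about 7.4, sterile-filtered, vialed and held at 40° C; sampled on days 7 and 26. After centrifugation, concentration and purity (target/total peak area) by C18 RP-HPLC, TFA/ACN gradient, 280 and 214 nm.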

[3] = Animal study: weight change and accumulated food intake in SD rats after subcutaneous dosing; format: in vivo, SD (Sprague Dawley) rats; conditions: 10 nmol/kg subcutaneous; for effect on body weight of SD rats: FIGS. 1 and 3; for effect on accumulated food intake of SD rats: FIGS. 2 and 4
Description: SD (Sprague Dawley) rats weighing 200-250 g were used for this study. The rats were received at least 10-14 days before the study began such that they could accommodate to the experimental environment. After arrival, they were exposed to a reversed light/dark cycle (i.e., lights switched off in daytime and on in nighttime) for two weeks and were individually housed for the first week so as to ensure high data accuracy and test sensitivity. Throughout the acclimation and experiment period, the rats had free access to food and water. 5-8 rats were assigned to each testing group for the derivatives and were subcutaneously administered the derivatives at a dose of 10 nmol/kg or a vehicle (20 mM phosphate buffer, PB, pH 7.0), and the dosing timepoint was recorded for each group. After dosing, the rats were put back into cages where they were housed and could have access to food and water. Food consumption and weight change of the rats were recorded online or manually every 24 hours. Percent of weight change=(BWTn−BWT0)/BWT0*100%, wherein BW represented the value of body weight, and T0 and Tn represented the time point of dosing and n hours post dose respectively. Dots in the figures were represented utilizing mean±standard error of the mean (SEM).

SMILES	EC50 ([1]; incubation of 24 hours, Table 4, read-out: EC50, activity against the calcitonin receptor in cells) [pM]	Fold change in activity against hCTR ([1]; relative to D1 as benchmark)	EC50 (amylin receptor (hAMY3R); Table 5 integrated analysis, read-out: hAMY3R EC50) [pM]	Fold change in activity against hAMY3R (amylin receptor (hAMY3R); relative to D1 as benchmark)	Concentration change on 7 d ([2]; pH about 7.4, 1 mg/mL, Day 7)	Concentration change on 26 d ([2]; pH about 7.4, 1 mg/mL) [%]	Purity change on 7 d ([2]; Day 7)	Purity change on 26 d [2]	effect on body weight of SD rats [3]	effect on accumulated food intake of SD rats [3]	EC50 (amylin receptor (hAMY3R); incubation of 24 hours, Table 3, read-out: EC50, activity against the amylin receptor in cells) [pM]
CC(C)C[C@H](NC(=O)[C@H](CCCNC(=N)N)NC(=O)CNC(=O)[C@H](CC(C)C)NC(=O)[C@@H](NC(=O)[C@H](C)NC(=O)[C@@H](NC(=O)[C@H](CO)NC(=O)[C@H](CC(C)C)NC(=O)[C@H](CCC(N)=O)NC(=O)[C@H](CO)NC(=O)[C@H](C)NC(=O)COCCOCCNC(=O)COCCOCCNC(=O)CC[C@H](NC(=O)CCCCCCCCCCCCCCCCCCC(=O)O)C(=O)O)[C@@H](C)O)C(C)C)C(=O)N[C@@H](CO)C(=O)N[C@@H](CC(=O)O)C(=O)N[C@@H](CCC(=O)O)C(=O)N[C@@H](CC(C)C)C(=O)N[C@@H](Cc1c[nH]cn1)C(=O)N[C@@H](CCCNC(=N)N)C(=O)N[C@@H](CC(C)C)C(=O)N[C@@H](CCC(N)=O)C(=O)N[C@@H](CC(=O)O)C(=O)N[C@@H](Cc1ccc(O)cc1)C(=O)N1CCC[C@H]1C(=O)N[C@@H](CCCNC(=N)N)C(=O)N[C@H](C(=O)N[C@@H](CC(=O)O)C(=O)N[C@H](C(=O)NCC(=O)N[C@@H](CO)C(=O)NCC(=O)N[C@@H](CO)C(=O)N1CCC[C@H]1C(N)=O)C(C)C)[C@@H](C)O [M18] ({C20 diacid-γGlu-AEEA-AEEA}-ASQLSTAVLGRLSDELHRLQDYPRTDVGSGSP-NH2)	69	1.246	16	2.25	No change (concentration change of less than 1% (denoted as “no change”))	−1.148	No change	nearly no noticeable change in purity	apparently further reduced	apparently further reduced	–
CC(C)C[C@H](NC(=O)[C@H](CCCNC(=N)N)NC(=O)CNC(=O)[C@H](CC(C)C)NC(=O)[C@@H](NC(=O)[C@H](C)NC(=O)[C@@H](NC(=O)[C@H](CO)NC(=O)[C@H](CC(C)C)NC(=O)[C@H](CCC(N)=O)NC(=O)[C@H](CO)NC(=O)[C@H](C)NC(=O)COCCOCCNC(=O)COCCOCCNC(=O)[C@H](CCC(=O)O)NC(=O)CCCCCCCCCCCCCCCCCCC(=O)O)[C@@H](C)O)C(C)C)C(=O)N[C@@H](CO)C(=O)N[C@@H](CC(=O)O)C(=O)N[C@@H](CCC(=O)O)C(=O)N[C@@H](CC(C)C)C(=O)N[C@@H](Cc1c[nH]cn1)C(=O)N[C@@H](CCCNC(=N)N)C(=O)N[C@@H](CC(C)C)C(=O)N[C@@H](CCC(N)=O)C(=O)N[C@@H](CC(=O)O)C(=O)N[C@@H](Cc1ccc(O)cc1)C(=O)N1CCC[C@H]1C(=O)N[C@@H](CCCNC(=N)N)C(=O)N[C@H](C(=O)N[C@@H](CC(=O)O)C(=O)N[C@H](C(=O)NCC(=O)N[C@@H](CO)C(=O)NCC(=O)N[C@@H](CO)C(=O)N1CCC[C@H]1C(N)=O)C(C)C)[C@@H](C)O [M23] ({C20 diacid}-E[AEEA][AEEA]ASQLSTAVLGRLSDELHRLQDYPRTDVGSGSP-NH2)	–	–	–	–	–	−7.782	No change	nearly no noticeable change in purity	apparently further reduced	apparently further reduced	17
